Bridge positions count the residues as written; N and C are the ends. Square brackets hold non-standard residues; d marks the D form. Peptide text beside a SMILES is read from it. Hyp = O=C(O)[C@@H]1C[C@@H](O)CN1; Cit = NC(=O)NCCC[C@H](N)C(=O)O
Assays:
[1] = Physical stability of peptide analogues (Thioflavin T fibrillation); format: physicochemical; settings: maximum ThT signal normalized between hAMY maximum and buffer background; 40° C., shaking, four days; pH 7 per table title
In short: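 Samples are stressed at 40 °C for four days, being shaken at 700 rpm before each 10-min fluorescence reading of 4 μM Thioflavin T. Buffers were pH 4 acetate or pH 7 phosphate. Reported values are smoothed maximum ThT signals as a percentage of the hAMY-to-background range.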

[2] = biological target: T1, hAMY3 receptor (Homo sapiens, UniProt O60896+P30988); experiment: cAMP assay for in vitro receptor activation, hAMY3-R; format: cell-based; settings: cAMP assay, hAMY3 receptor; read-out: hAMY3R EC50
T1 sequence (P30988 25-474): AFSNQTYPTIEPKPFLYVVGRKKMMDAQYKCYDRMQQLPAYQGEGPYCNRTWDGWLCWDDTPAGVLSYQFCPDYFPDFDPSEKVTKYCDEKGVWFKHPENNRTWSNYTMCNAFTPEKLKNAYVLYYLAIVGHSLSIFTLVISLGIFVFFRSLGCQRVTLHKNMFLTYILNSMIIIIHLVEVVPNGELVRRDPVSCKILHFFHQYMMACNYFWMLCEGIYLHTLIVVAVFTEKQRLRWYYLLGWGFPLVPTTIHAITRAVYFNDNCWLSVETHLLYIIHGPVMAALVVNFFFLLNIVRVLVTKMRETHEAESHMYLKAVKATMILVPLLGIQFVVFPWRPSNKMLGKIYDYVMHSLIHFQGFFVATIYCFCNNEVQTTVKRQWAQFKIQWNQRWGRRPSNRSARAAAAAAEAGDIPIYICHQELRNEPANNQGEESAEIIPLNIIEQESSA
T1 sequence (O60896 24-148 partner): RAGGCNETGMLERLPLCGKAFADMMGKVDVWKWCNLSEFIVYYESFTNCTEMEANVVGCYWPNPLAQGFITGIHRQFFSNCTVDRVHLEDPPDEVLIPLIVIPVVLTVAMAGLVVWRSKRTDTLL
In short: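 Monoclonal cell line stably overexpressing human AMY3 receptor, 2000 cells/well in DPBS with 0.05% casein and 0.5 mM IBMX. Stimulated 30 min at room temperature with graded compound doses, human amylin as positive control. cAMP accumulation read by TR-FRET after one hour.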

[3] = biological target: hAM1 receptor (Homo sapiens, UniProt O60895+Q16602); experiment: cAMP assay for in vitro receptor activation, hAM1-R; format: cell-based; settings: cAMP assay, hAM1 receptor; read-out: hAM1R EC50
Chain of hAM1 receptor (Q16602 23-461): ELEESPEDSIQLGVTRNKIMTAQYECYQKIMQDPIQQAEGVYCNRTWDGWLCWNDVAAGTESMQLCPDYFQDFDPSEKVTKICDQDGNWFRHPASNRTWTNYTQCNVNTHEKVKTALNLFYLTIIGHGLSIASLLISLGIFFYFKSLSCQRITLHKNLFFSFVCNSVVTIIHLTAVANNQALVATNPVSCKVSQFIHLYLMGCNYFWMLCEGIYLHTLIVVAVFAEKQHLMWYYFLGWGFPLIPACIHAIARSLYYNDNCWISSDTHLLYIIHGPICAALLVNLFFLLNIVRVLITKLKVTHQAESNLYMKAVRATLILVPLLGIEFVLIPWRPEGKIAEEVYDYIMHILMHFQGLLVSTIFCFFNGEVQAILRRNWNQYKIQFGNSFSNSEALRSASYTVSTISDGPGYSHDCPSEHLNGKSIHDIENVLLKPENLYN
Chain of hAM1 receptor (O60895 43-175 partner): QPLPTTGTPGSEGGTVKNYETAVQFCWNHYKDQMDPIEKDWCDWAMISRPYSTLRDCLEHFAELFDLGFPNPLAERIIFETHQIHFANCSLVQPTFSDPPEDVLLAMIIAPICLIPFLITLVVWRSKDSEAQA
In short: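 Read-out is intracellular cAMP as a measure of receptor activation. Cells stably overexpressing hAM1 were subcloned to a monoclonal line, then thawed and seeded at 8000 cells/well in DPBS with 0.05% casein and the phosphodiesterase inhibitor IBMX at 0.5 mM.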

Compound	Max ThT signal (%) [1] [%]	EC50 [2] [nM]	EC50 [3] [nM]
CC[C@H](C)[C@H](NC(=O)[C@H](CCC(N)=O)NC(=O)[C@H](Cc1c[nH]cn1)NC(=O)[C@H](C)NC(=O)[C@H](CC(C)C)NC(=O)[C@H](Cc1c[nH]c2ccccc12)NC(=O)[C@H](CCC(N)=O)NC(=O)[C@@H](NC(=O)[C@@H](NC(=O)[C@@H]1CSSC[C@H](NC(=O)[C@@H](N)CCCCN)C(=O)N[C@@H](CC(N)=O)C(=O)N[C@@H]([C@@H](C)O)C(=O)N[C@@H](C)C(=O)N[C@@H]([C@@H](C)O)C(=O)N1)[C@@H](C)O)C(C)C)C(=O)N[C@@H](Cc1ccc(O)cc1)C(=O)N[C@@H](CCC(N)=O)C(=O)N[C@@H](Cc1ccccc1)C(=O)N[C@H](C(=O)N[C@@H](CC(=O)O)C(=O)N[C@@H](CCCCN)C(=O)N[C@@H](CC(=O)O)C(=O)N[C@@H](CCCCN)C(=O)N[C@@H](CC(=O)O)C(=O)N[C@@H](CC(N)=O)C(=O)N[C@H](C(=O)N[C@@H](C)C(=O)N1CCC[C@H]1C(=O)N[C@@H](C)C(=O)N[C@H](C(=O)N[C@@H](CC(N)=O)C(=O)N[C@H](C(=O)NCC(=O)N[C@@H](CO)C(=O)N[C@@H](CC(N)=O)C(=O)NCC(=O)N1C[C@H](O)C[C@H]1C(N)=O)C(C)C)[C@@H](C)O)C(C)C)[C@@H](C)O [compound 316] (H-KCNTATCTVQWLAHQIYQFTDKDKDNVAPATNVGSNG[Hyp]-NH2; disulfide 2-7)	20.450	0.012	> 5000
CC[C@H](C)[C@H](NC(=O)[C@H](CCC(N)=O)NC(=O)[C@H](Cc1c[nH]cn1)NC(=O)[C@H](C)NC(=O)[C@H](CC(C)C)NC(=O)[C@H](Cc1c[nH]c2ccccc12)NC(=O)[C@H](CCC(N)=O)NC(=O)[C@@H](NC(=O)[C@@H](NC(=O)[C@@H]1CSSC[C@H](NC(=O)[C@@H](N)CCCCN)C(=O)N[C@@H](CC(N)=O)C(=O)N[C@@H]([C@@H](C)O)C(=O)N[C@@H](C)C(=O)N[C@@H]([C@@H](C)O)C(=O)N1)[C@@H](C)O)C(C)C)C(=O)N[C@@H](Cc1ccc(O)cc1)C(=O)N[C@@H](CCC(N)=O)C(=O)N[C@@H](Cc1ccccc1)C(=O)N[C@H](C(=O)N[C@@H](CC(=O)O)C(=O)N[C@@H](CCCCN)C(=O)N[C@@H](CC(=O)O)C(=O)N[C@@H](CCCCN)C(=O)N[C@@H](CC(=O)O)C(=O)N[C@@H](CC(N)=O)C(=O)N[C@H](C(=O)N[C@@H](C)C(=O)N1CCC[C@H]1C(=O)N[C@H](C(=O)N[C@@H](CC(N)=O)C(=O)N[C@H](C(=O)NCC(=O)N[C@@H](CO)C(=O)N[C@@H](CC(N)=O)C(=O)NCC(=O)N1C[C@H](O)C[C@H]1C(N)=O)C(C)C)[C@@H](C)O)C(C)C)[C@@H](C)O [compound 319] (H-KCNTATCTVQWLAHQIYQFTDKDKDNVAPTNVGSNG[Hyp]-NH2; disulfide 2-7; N-terminus assumed)	3.900	0.018	> 5000
CC[C@H](C)[C@H](NC(=O)[C@H](CCC(N)=O)NC(=O)[C@H](CC(=O)O)NC(=O)[C@H](C)NC(=O)[C@H](CC(C)C)NC(=O)[C@H](CCCNC(N)=O)NC(=O)[C@H](C)NC(=O)[C@@H](NC(=O)[C@@H](NC(=O)[C@@H]1CSSC[C@H](NC(=O)[C@@H](N)CCCCN)C(=O)N[C@@H](CC(N)=O)C(=O)N[C@@H]([C@@H](C)O)C(=O)N[C@@H](CO)C(=O)N[C@@H]([C@@H](C)O)C(=O)N1)[C@@H](C)O)C(C)C)C(=O)N[C@H](C(=O)N[C@@H](CCC(N)=O)C(=O)N[C@@H](Cc1ccccc1)C(=O)N[C@@H](CO)C(=O)N[C@@H](CC(=O)O)C(=O)N[C@@H](CCCCN)C(=O)N[C@@H](CC(=O)O)C(=O)N[C@@H](CCCCN)C(=O)N[C@@H](C)C(=O)N[C@@H](CC(N)=O)C(=O)N[C@H](C(=O)N[C@@H](CO)C(=O)N1CCC[C@H]1C(=O)N1CCC[C@H]1C(=O)N[C@H](C(=O)N[C@@H](CCC(=O)O)C(=O)N[C@H](C(=O)NCC(=O)N1CCC[C@H]1C(=O)N[C@@H](CC(N)=O)C(=O)N[C@@H](CO)C(=O)N1C[C@H](O)C[C@H]1C(N)=O)C(C)C)[C@@H](C)O)C(C)C)[C@@H](C)O [compound 247] (H-KCNTSTCTVA[Cit]LADQITQFSDKDKANVSPPTEVGPNS[Hyp]-NH2; disulfide 2-7; N-terminus assumed)	1.350	0.004	> 5000
CC[C@H](C)[C@H](NC(=O)[C@H](CCC(N)=O)NC(=O)[C@H](Cc1c[nH]cn1)NC(=O)[C@H](C)NC(=O)[C@H](CC(C)C)NC(=O)[C@H](CCCNC(=N)N)NC(=O)[C@H](CCC(N)=O)NC(=O)[C@@H](NC(=O)[C@@H](NC(=O)[C@@H]1CSSC[C@H](NC(=O)[C@@H](N)CCCCN)C(=O)N[C@@H](CC(N)=O)C(=O)N[C@@H]([C@@H](C)O)C(=O)N[C@@H](C)C(=O)N[C@@H]([C@@H](C)O)C(=O)N1)[C@@H](C)O)C(C)C)C(=O)N[C@@H](Cc1ccc(O)cc1)C(=O)N[C@@H](CCC(N)=O)C(=O)N[C@@H](Cc1ccccc1)C(=O)N[C@@H](CC(=O)O)C(=O)N[C@@H](CCCCN)C(=O)N[C@@H](CC(=O)O)C(=O)N[C@@H](CCCCN)C(=O)N[C@@H](CC(=O)O)C(=O)N[C@@H](CC(N)=O)C(=O)N[C@H](C(=O)N[C@@H](C)C(=O)N1CCC[C@H]1C(=O)N1CCC[C@H]1C(=O)N[C@H](C(=O)N[C@@H](CC(N)=O)C(=O)N[C@H](C(=O)NCC(=O)N[C@@H](CO)C(=O)N[C@@H](CC(N)=O)C(=O)NCC(=O)N1C[C@H](O)C[C@H]1C(N)=O)C(C)C)[C@@H](C)O)C(C)C [compound 65] (H-KCNTATCTVQRLAHQIYQFDKDKDNVAPPTNVGSNG[Hyp]-NH2; disulfide 2-7; N-terminus assumed)	1.000	0.012	> 5000
CC[C@H](C)[C@H](NC(=O)[C@H](CCC(N)=O)NC(=O)[C@H](Cc1c[nH]cn1)NC(=O)[C@H](C)NC(=O)[C@H](CC(C)C)NC(=O)[C@H](CCCNC(N)=O)NC(=O)[C@H](CCC(N)=O)NC(=O)[C@@H](NC(=O)[C@@H](NC(=O)[C@@H]1CSSC[C@H](NC(=O)[C@@H](N)CCCCN)C(=O)N[C@@H](CC(N)=O)C(=O)N[C@@H]([C@@H](C)O)C(=O)N[C@@H](C)C(=O)N[C@@H]([C@@H](C)O)C(=O)N1)[C@@H](C)O)C(C)C)C(=O)N[C@@H](C)C(=O)N[C@@H](CCC(N)=O)C(=O)N[C@@H](Cc1ccccc1)C(=O)N[C@H](C(=O)N[C@@H](CC(=O)O)C(=O)N[C@@H](CCCCN)C(=O)N[C@@H](CC(=O)O)C(=O)N[C@@H](CCCCN)C(=O)N[C@@H](CC(=O)O)C(=O)N[C@@H](CC(N)=O)C(=O)N[C@H](C(=O)N[C@@H](C)C(=O)N1CCC[C@H]1C(=O)N1CCC[C@H]1C(=O)N[C@H](C(=O)N[C@@H](CC(N)=O)C(=O)N[C@H](C(=O)NCC(=O)N[C@@H](CO)C(=O)N[C@@H](CC(N)=O)C(=O)NCC(=O)N1C[C@H](O)C[C@H]1C(N)=O)C(C)C)[C@@H](C)O)C(C)C)[C@@H](C)O [compound 246] (H-KCNTATCTVQ[Cit]LAHQIAQFTDKDKDNVAPPTNVGSNG[Hyp]-NH2; disulfide 2-7)	4.200	0.01	> 5000
CC[C@H](C)[C@H](NC(=O)[C@H](CCC(N)=O)NC(=O)[C@H](Cc1c[nH]cn1)NC(=O)[C@H](C)NC(=O)[C@H](CC(C)C)NC(=O)[C@H](CCCNC(N)=O)NC(=O)[C@H](CCC(N)=O)NC(=O)[C@@H](NC(=O)[C@@H](NC(=O)[C@@H]1CSSC[C@H](NC(=O)CN)C(=O)N[C@@H](CCCNC(=N)N)C(=O)N[C@@H]([C@@H](C)O)C(=O)NCC(=O)N[C@@H]([C@@H](C)O)C(=O)N1)[C@@H](C)O)C(C)C)C(=O)N[C@@H](Cc1ccc(O)cc1)C(=O)N[C@@H](CCC(N)=O)C(=O)N[C@@H](Cc1ccccc1)C(=O)N[C@H](C(=O)N[C@@H](CC(=O)O)C(=O)N[C@@H](CCCCN)C(=O)N[C@@H](CC(=O)O)C(=O)N[C@@H](CCCCN)C(=O)N[C@@H](CC(=O)O)C(=O)N[C@@H](CC(N)=O)C(=O)N[C@H](C(=O)N[C@@H](C)C(=O)N1CCC[C@H]1C(=O)N[C@@H](CCCNC(=N)N)C(=O)N[C@@H](CO)C(=O)N[C@@H](CCCCN)C(=O)N[C@H](C(=O)NCC(=O)N1CCC[C@H]1C(=O)N[C@@H](CC(N)=O)C(=O)NCC(=O)N1C[C@H](O)C[C@H]1C(N)=O)C(C)C)C(C)C)[C@@H](C)O [compound 290] (H-GCRTGTCTVQ[Cit]LAHQIYQFTDKDKDNVAPRSKVGPNG[Hyp]-NH2; disulfide 2-7; N-terminus assumed)	17.300	0.047	> 5000

From US12139520B2 (priority 2020, dated 2024)
